ChEMBL document CHEMBL1201862, “PubChem BioAssay data set” (2004)
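In this assay, cells in 96-well plates receive the compound at five concentrations for 48 hours. Endpoints are linearly interpolated between the surrounding concentrations. Here, GI50 denotes the concentration required for 50% inhibition of growth.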 The source made the active and inactive calls. Cut-off read from the data, not from the text of the source: active = GI50 up to about 1.1 µM and inactive = higher.

Tests used:
Assay in all cases: NCI-60 cell line screen, 48 h
Malme-3M = tested on: Malme-3M
U-251 = tested on: U-251
HT-29 = tested on: HT-29
UACC-62 = tested on: UACC-62
OVCAR-4 = tested on: OVCAR-4
NCI-H460 = tested on: NCI-H460
SK-MEL-28 = tested on: SK-MEL-28
SK-MEL-5 = tested on: SK-MEL-5
786-0 = tested on: 786-0
NCI-H522 = tested on: NCI-H522
SN12C = tested on: SN12C
CCRF-CEM = tested on: CCRF-CEM
SK-OV-3 = tested on: SK-OV-3
OVCAR-8 = tested on: OVCAR-8
SNB-19 = tested on: SNB-19
HL-60 = tested on: HL-60

Measured: GI50

COC(=O)C1C(=O)N(CCc2c[nH]c3ccccc23)C[C@@H]2CCC(=O)C[C@H]12 (some centres not stated)
inactive: Malme-3M > 100 µM | U-251 > 100 µM | HT-29 > 100 µM | UACC-62 > 100 µM | OVCAR-4 > 100 µM | NCI-H460 > 100 µM | SK-MEL-28 > 100 µM | SK-MEL-5 > 100 µM | 786-0 > 100 µM | NCI-H522 > 100 µM | SN12C > 100 µM | CCRF-CEM > 100 µM | SK-OV-3 > 100 µM | OVCAR-8 > 100 µM | SNB-19 > 100 µM | HL-60 > 100 µM

CC1(C)CC(=O)C(=[N+]=[N-])C(=O)C1
inactive: Malme-3M > 100 µM | HT-29 > 100 µM | UACC-62 > 100 µM | OVCAR-4 > 100 µM | SK-MEL-28 > 100 µM | 786-0 > 100 µM | NCI-H522 > 100 µM | SN12C > 100 µM | CCRF-CEM > 100 µM | SK-OV-3 > 100 µM | SNB-19 > 100 µM | HL-60 > 100 µM

O=C1CC(c2ccc(Cl)cc2)=Nc2ccccc2N1
inactive: Malme-3M > 100 µM | U-251 20.7 µM | HT-29 > 100 µM | UACC-62 > 100 µM | OVCAR-4 28.6 µM | NCI-H460 34.7 µM | SK-MEL-28 > 100 µM | SK-MEL-5 > 100 µM | 786-0 36.1 µM | NCI-H522 40.9 µM | SN12C 46.7 µM | CCRF-CEM 15.1 µM | SK-OV-3 32.7 µM | OVCAR-8 25.9 µM | SNB-19 51.6 µM | HL-60 19.3 µM

O=C(Nc1ccc(Cl)c(Cl)c1)C1C(=O)N(c2ccc(Cl)c(Cl)c2)C(=O)/C1=N\O (configuration not stated)
inactive: Malme-3M > 100 µM | U-251 66.8 µM | HT-29 39.4 µM | UACC-62 > 100 µM | OVCAR-4 70.1 µM | SK-MEL-28 25.6 µM | SK-MEL-5 > 100 µM | 786-0 44.5 µM | NCI-H522 27.4 µM | SN12C 61.8 µM | CCRF-CEM 42.1 µM | SK-OV-3 > 100 µM | OVCAR-8 > 100 µM | SNB-19 > 100 µM

CCOC(=O)C(C)(C)Oc1ccc2c(=O)cc(-c3ccccc3)oc2c1
inactive: Malme-3M 22.9 µM | U-251 18.2 µM | UACC-62 18.2 µM | NCI-H460 27.7 µM | SK-MEL-28 16.7 µM | SK-MEL-5 14.8 µM | 786-0 16.3 µM | NCI-H522 13.9 µM | SN12C 32.1 µM | CCRF-CEM 18 µM | SK-OV-3 > 100 µM | OVCAR-8 23 µM | SNB-19 18.8 µM | HL-60 14.1 µM

COc1ccc(/C=c2/sc3n(c2=O)NC2(CCCCC2)NN=3)cc1
inactive: Malme-3M > 100 µM | U-251 > 10 µM | HT-29 > 100 µM | UACC-62 > 100 µM | OVCAR-4 > 100 µM | NCI-H460 > 100 µM | SK-MEL-28 > 100 µM | SK-MEL-5 > 100 µM | 786-0 > 100 µM | NCI-H522 > 100 µM | SN12C > 100 µM | CCRF-CEM > 100 µM | SK-OV-3 > 100 µM | OVCAR-8 > 100 µM | SNB-19 > 100 µM

CC(=O)OC1COC(N2C(=O)C(=O)c3cc(Br)ccc32)C(OC(C)=O)C1OC(C)=O (configuration not stated)
inactive: Malme-3M > 100 µM | U-251 > 100 µM | HT-29 > 100 µM | UACC-62 > 100 µM | OVCAR-4 > 100 µM | NCI-H460 > 100 µM | SK-MEL-28 > 100 µM | SK-MEL-5 > 100 µM | 786-0 > 100 µM | NCI-H522 > 100 µM | SN12C > 100 µM | CCRF-CEM 71.3 µM | SK-OV-3 > 100 µM | OVCAR-8 > 100 µM | SNB-19 > 100 µM

C=CCO/N=C(\OC(=O)c1ccc([N+](=O)[O-])cc1)c1ccccc1
inactive: Malme-3M > 100 µM | U-251 > 100 µM | HT-29 > 100 µM | UACC-62 > 100 µM | OVCAR-4 > 100 µM | NCI-H460 > 100 µM | SK-MEL-28 > 100 µM | SK-MEL-5 > 100 µM | 786-0 > 100 µM | SN12C > 100 µM | CCRF-CEM > 100 µM | SK-OV-3 > 100 µM | OVCAR-8 > 100 µM | SNB-19 > 100 µM

N#Cc1ccc(OCCSCCCCCCCCCCSCCOc2ccc(C#N)cc2)cc1
inactive: Malme-3M > 100 µM | U-251 > 100 µM | UACC-62 > 100 µM | NCI-H460 > 100 µM | SK-MEL-28 > 100 µM | SK-MEL-5 3.03 µM | 786-0 > 100 µM | NCI-H522 29.6 µM | SN12C > 100 µM | CCRF-CEM > 100 µM | SK-OV-3 > 100 µM | OVCAR-8 > 100 µM | HL-60 > 100 µM

COC(=O)C1=CC2OC1(C)C1(CC1)C2=O (configuration not stated)
inactive: Malme-3M 11.7 µM | U-251 > 100 µM | HT-29 12.9 µM | OVCAR-4 11.6 µM | NCI-H460 22.6 µM | SK-MEL-5 > 10 µM | 786-0 17.2 µM | NCI-H522 5.73 µM | SN12C 16.6 µM | CCRF-CEM 5.6 µM | SK-OV-3 76.9 µM | OVCAR-8 16 µM | SNB-19 > 100 µM | HL-60 4.02 µM

N#CC(C(=O)CCC(=O)C(C#N)c1ccccc1)c1ccccc1 (configuration not stated)
inactive: Malme-3M > 100 µM | U-251 > 100 µM | HT-29 > 100 µM | UACC-62 > 100 µM | OVCAR-4 > 100 µM | NCI-H460 > 100 µM | SK-MEL-28 > 100 µM | SK-MEL-5 > 100 µM | 786-0 > 100 µM | NCI-H522 > 100 µM | SN12C > 100 µM | CCRF-CEM > 100 µM | SK-OV-3 > 100 µM | OVCAR-8 > 100 µM | SNB-19 > 100 µM | HL-60 > 100 µM

COC1(OC)CCCCC2c3cccc(OC(C)=O)c3C21OC(C)=O (configuration not stated)
inactive: Malme-3M > 100 µM | HT-29 > 100 µM | UACC-62 > 100 µM | OVCAR-4 > 100 µM | NCI-H460 > 10 µM | SK-MEL-28 > 100 µM | SK-MEL-5 > 100 µM | 786-0 > 100 µM | NCI-H522 > 100 µM | SN12C > 100 µM | CCRF-CEM > 100 µM | SK-OV-3 > 100 µM | OVCAR-8 > 100 µM | SNB-19 > 100 µM | HL-60 65.8 µM

Cc1cccc(C)c1NC(=O)CCC(=O)NNc1nnc(C)n1N
inactive: Malme-3M > 100 µM | U-251 > 100 µM | HT-29 > 100 µM | UACC-62 > 100 µM | OVCAR-4 > 100 µM | NCI-H460 > 100 µM | SK-MEL-28 > 100 µM | SK-MEL-5 > 100 µM | 786-0 > 100 µM | NCI-H522 > 100 µM | SN12C > 100 µM | CCRF-CEM > 100 µM | SK-OV-3 > 100 µM | OVCAR-8 > 100 µM | SNB-19 > 100 µM | HL-60 > 100 µM

O=C(CCC(=O)C1Cc2ccccc2C1=O)Nc1cccc(C(F)(F)F)c1 (configuration not stated)
inactive: Malme-3M > 100 µM | U-251 > 100 µM | HT-29 > 100 µM | UACC-62 > 100 µM | OVCAR-4 > 100 µM | NCI-H460 > 100 µM | SK-MEL-28 > 10 µM | SK-MEL-5 > 100 µM | 786-0 > 100 µM | SN12C > 100 µM | CCRF-CEM > 100 µM | SK-OV-3 > 100 µM | OVCAR-8 > 100 µM | SNB-19 > 100 µM | HL-60 > 100 µM

CCOc1ccccc1NC(=O)C(=O)CC(=O)c1c(C)[n+]([O-])c2ccccc2[n+]1[O-]
inactive: Malme-3M > 100 µM | U-251 > 100 µM | HT-29 > 100 µM | UACC-62 > 100 µM | OVCAR-4 > 100 µM | NCI-H460 81.7 µM | SK-MEL-28 > 100 µM | SK-MEL-5 43.9 µM | 786-0 > 100 µM | NCI-H522 84.5 µM | SN12C > 100 µM | CCRF-CEM 52.8 µM | SK-OV-3 > 100 µM | OVCAR-8 > 100 µM | SNB-19 69.2 µM | HL-60 > 100 µM

COC(=O)C(Cc1nc2ccccc2nc1O)C(NO)C(=O)Nc1c(Cl)cc([N+](=O)[O-])cc1Cl (configuration not stated)
inactive: Malme-3M 47.5 µM | U-251 31.3 µM | HT-29 35.2 µM | UACC-62 18 µM | OVCAR-4 38.5 µM | NCI-H460 20.7 µM | SK-MEL-28 30.9 µM | SK-MEL-5 18 µM | 786-0 40.6 µM | NCI-H522 15.5 µM | SN12C 45.3 µM | CCRF-CEM 23.3 µM | SK-OV-3 37.9 µM | OVCAR-8 30.4 µM | SNB-19 40.1 µM

CCOC(=O)C1N(S(=O)(=O)c2ccc(C)cc2)CCC12c1ccccc1N(C(C)=O)C2C(/C=C/C(=O)OC)=C/C(=O)OC (configuration not stated)
inactive: Malme-3M > 100 µM | U-251 > 100 µM | HT-29 > 100 µM | UACC-62 > 100 µM | OVCAR-4 > 100 µM | NCI-H460 > 100 µM | SK-MEL-28 > 100 µM | SK-MEL-5 > 100 µM | 786-0 > 100 µM | NCI-H522 > 100 µM | SN12C > 100 µM | CCRF-CEM > 100 µM | SK-OV-3 > 100 µM | OVCAR-8 > 100 µM | SNB-19 > 100 µM | HL-60 66.8 µM

CC12CCC[C@@](C)(C(=O)OC3OC(CO)C(O)C(O)C3O)[C@H]1CCC13CC4CC(OC4(CO)[C@H]1O)[C@@H]23 (some centres not stated)
inactive: Malme-3M > 100 µM | U-251 > 100 µM | HT-29 > 100 µM | UACC-62 > 100 µM | OVCAR-4 > 100 µM | NCI-H460 > 100 µM | SK-MEL-28 > 100 µM | SK-MEL-5 > 100 µM | 786-0 > 100 µM | NCI-H522 > 100 µM | SN12C > 100 µM | CCRF-CEM > 100 µM | SK-OV-3 > 100 µM | OVCAR-8 > 100 µM | SNB-19 > 100 µM
